The results in this text go back to patent publication US20230339970A1, “CASEIN KINASE 1 DELTA MODULATORS” (priority 2020, published 2023).

For orientation: IC50 means the concentration at which inhibition is half-maximal.

The target in test [1] is T1, human recombinant GST cleaved CSNK1D (Homo sapiens, UniProt P48730).
T1 construct: GST (cleaved yes); purchased University of Dundee clone DU 19064
Nature of the test: Purified Enzyme Assay (ADP-Glo CSNK1D Kinase Assay). As to conditions: 2 nM CSNK1D; peptide substrate 150 μM; ATP 20 μM; 45 minutes at room temperature. Format: biochemical. The gist of the method:
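Percent activity derived from ADP-Glo quantification of ADP produced. Reactions: compound dose-response with human recombinant GST-cleaved CSNK1D, ATP and substrate peptide PLSRTL-pS-VASLPGL, incubated 45 min at room temperature.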
A general note: ADP-Glo first removes unused ATP, then detects ADP through luciferase.

For test [2], the target named is T2, human CSNK1D (Homo sapiens, UniProt P48730).
T2 construct: expressed in transfected cells
Nature of the test: Whole Cell nBRET CSNK1D Binding Assay. To be noted: living CHO cells stably expressing human CSNK1D tagged with nanoluciferase; NanoBret tracer 130 nM; 2 hours at 37 C.

T2 sequence (P48730 whole entry): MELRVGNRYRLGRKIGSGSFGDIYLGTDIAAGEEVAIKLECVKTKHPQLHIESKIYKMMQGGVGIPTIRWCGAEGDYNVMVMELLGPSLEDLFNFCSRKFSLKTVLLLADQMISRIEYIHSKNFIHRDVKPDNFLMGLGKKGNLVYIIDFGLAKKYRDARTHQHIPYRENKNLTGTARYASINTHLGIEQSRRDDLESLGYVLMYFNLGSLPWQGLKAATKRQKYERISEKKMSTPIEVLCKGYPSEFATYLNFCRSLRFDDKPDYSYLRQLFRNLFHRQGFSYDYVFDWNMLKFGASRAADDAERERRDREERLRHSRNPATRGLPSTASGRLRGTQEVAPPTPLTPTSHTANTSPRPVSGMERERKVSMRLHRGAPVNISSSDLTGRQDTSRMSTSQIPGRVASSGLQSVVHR
T1 sequence (P48730 whole entry): as above

Consider `Cc1nc2[nH]nc(C)c2c(-c2c(-c3ccc(F)cn3)nn3c2CC[C@@H]2C[C@@H]23)c1F` (single isomer, unassigned) [Example 346, (5a*R,6a*S)-3-(5-Fluoro-3,6-dimethyl-1H-pyrazolo[3,4-b]pyridin-4-yl)-2-(5-fluoropyridin-2-yl)-5,5a,6,6a-tetrahydro-4H-cyclopropa[e]pyrazolo[1,5-a]pyridine], for which the IC50 came out at 25 nM in test [1] and 173 nM in test [2].
On to `Cc1nc2[nH]ncc2c(-c2c(-c3ccc(F)cn3)nn3c2CC[C@H]2[C@@H]3C2(F)F)c1F` (single isomer, unassigned) [Example 357, (5a*S,6a*R)-6,6-Difluoro-3-(5-fluoro-6-methyl-1H-pyrazolo[3,4-b]pyridin-4-yl)-2-(5-fluoropyridin-2-yl)-5,5a,6,6a-tetrahydro-4H-cyclopropa[e]pyrazolo[1,5-a]pyridine], for which the IC50 in test [1] was determined as 8 nM; in test [2], 40 nM.
For `Fc1ccc(-c2nn3c(c2-c2c(F)cnc4[nH]ncc24)CC[C@H]2[C@@H]3C2(F)F)nc1` (single isomer, unassigned) [Example 358, (5a*S,6a*R)-6,6-difluoro-3-(5-fluoro-1H-pyrazolo[3,4-b]pyridin-4-yl)-2-(5-fluoropyridin-2-yl)-5,5a,6,6a-tetrahydro-4H-cyclopropa[e]pyrazolo[1,5-a]pyridine], the IC50 in test [1] is 4 nM; in test [2], 85 nM.
Take `Cc1n[nH]c2ncc(F)c(-c3c(-c4ccc(F)cn4)nn4c3CC[C@H]3[C@@H]4C3(F)F)c12` (single isomer, unassigned) [Example 359, (5a*S,6a*R)-6,6-Difluoro-3-(5-fluoro-3-methyl-1H-pyrazolo[3,4-b]pyridin-4-yl)-2-(5-fluoropyridin-2-yl)-5,5a,6,6a-tetrahydro-4H-cyclopropa[e]pyrazolo[1,5-a]pyridine]: the concentration for half-maximal inhibition (IC50) in test [1] is 1670 nM; in test [2], > 10000 nM.
On to `Cc1nc2[nH]nc(C)c2c(-c2c(-c3ccc(F)cn3)nn3c2CC[C@H]2[C@@H]3C2(F)F)c1F` (single isomer, unassigned) [Example 360, (5a*S,6a*R)-6,6-Difluoro-3-(5-fluoro-3,6-dimethyl-1H-pyrazolo[3,4-b]pyridin-4-yl)-2-(5-fluoropyridin-2-yl)-5,5a,6,6a-tetrahydro-4H-cyclopropa[e]pyrazolo[1,5-a]pyridine], for which the results for the IC50 in test [1] and in test [2] were 7 nM and 70 nM, respectively.
On the same counts, the results for `Cc1nc(-c2c(-c3ccc(F)cn3)nn3c2CC[C@H]2[C@@H]3C2(F)F)c2cn[nH]c2n1` (single isomer, unassigned) [Example 361, (5a*S,6a*R)-6,6-Difluoro-2-(5-fluoropyridin-2-yl)-3-(6-methyl-1H-pyrazolo[3,4-d]pyrimidin-4-yl)-5,5a,6,6a-tetrahydro-4H-cyclopropa[e]pyrazolo[1,5-a]pyridine] are 497 nM and 349 nM.
On the same counts, the results for `Cc1cc(-c2c(-c3ccc(F)cc3)nn3c2[C@@H]2CC[C@H]3C2)c2cn[nH]c2n1` (single isomer, unassigned) [Example 364, (4*R,7*S)-2-(4-Fluorophenyl)-3-(6-methyl-1H-pyrazolo[3,4-b]pyridin-4-yl)-4,5,6,7-tetrahydro-4,7-methanopyrazolo[1,5-a]pyridine] are 5 nM and 102 nM.
Take `Cc1cc(-c2c(-c3ccc(F)cc3)nn3c2[C@H]2CC[C@@H]3C2)c2cn[nH]c2n1` (single isomer, unassigned) [Example 365, (4*S,7*R)-2-(4-Fluorophenyl)-3-(6-methyl-1H-pyrazolo[3,4-b]pyridin-4-yl)-4,5,6,7-tetrahydro-4,7-methanopyrazolo[1,5-a]pyridine]: the IC50 amounted to 1 nM in test [1] and 8 nM in test [2].
On the same counts, the results for `Cc1n[nH]c2nccc(-c3c(-c4ccc(F)cc4)nn4c3COC(C(F)(F)F)C4)c12` (single isomer, unassigned) [Example 372, (*S)-2-(4-Fluorophenyl)-3-(3-methyl-1H-pyrazolo[3,4-b]pyridin-4-yl)-6-(trifluoromethyl)-6,7-dihydro-4H-pyrazolo[5,1-c][1,4]oxazine] are 42 nM and 724 nM.
On the same counts, the results for `Cc1n[nH]c2nccc(-c3c(-c4ccc(F)cc4)nn4c3COC(C(F)(F)F)C4)c12` (single isomer, unassigned) [Example 373, (*R)-2-(4-Fluorophenyl)-3-(3-methyl-1H-pyrazolo[3,4-b]pyridin-4-yl)-6-(trifluoromethyl)-6,7-dihydro-4H-pyrazolo[5,1-c][1,4]oxazine] are 306 nM and > 10000 nM.
Consider `Cc1n[nH]c2nc(C(F)F)cc(-c3c(-c4ccc(F)cc4)nn4c3COC(C(F)(F)F)C4)c12` (single isomer, unassigned) [Example 374, (*S)-3-[6-(Difluoromethyl)-3-methyl-1H-pyrazolo[3,4-b]pyridin-4-yl]-2-(4-fluorophenyl)-6-(trifluoromethyl)-6,7-dihydro-4H-pyrazolo[5,1-c][1,4]oxazine], for which the IC50 in test [1] was 293 nM; in test [2], > 10000 nM.
`Cc1n[nH]c2nc(C(F)F)cc(-c3c(-c4ccc(F)cc4)nn4c3COC(C(F)(F)F)C4)c12` (single isomer, unassigned) [Example 375, (*R)-3-[6-(Difluoromethyl)-3-methyl-1H-pyrazolo[3,4-b]pyridin-4-yl]-2-(4-fluorophenyl)-6-(trifluoromethyl)-6,7-dihydro-4H-pyrazolo[5,1-c][1,4]oxazine]: the IC50 in test [1] came out at 65 nM; in test [2], 109 nM.
On the same counts, the results for `Cc1nc(-c2c(-c3ccc(F)cc3)nn3c2COC(C(F)(F)F)C3)c2cn[nH]c2n1` (single isomer, unassigned) [Example 376, (*R)-2-(4-Fluorophenyl)-3-(6-methyl-1H-pyrazolo[3,4-d]pyrimidin-4-yl)-6-(trifluoromethyl)-6,7-dihydro-4H-pyrazolo[5,1-c][1,4]oxazine] are 4 nM and 74 nM.
For `Cc1nc(-c2c(-c3ccc(F)cc3)nn3c2COC(C(F)(F)F)C3)c2cn[nH]c2n1` (single isomer, unassigned) [Example 377, (*S)-2-(4-Fluorophenyl)-3-(6-methyl-1H-pyrazolo[3,4-d]pyrimidin-4-yl)-6-(trifluoromethyl)-6,7-dihydro-4H-pyrazolo[5,1-c][1,4]oxazine], the IC50 in test [1] turned out to be 46 nM; in test [2], 2480 nM.
The corresponding values for `C[C@]1(C(F)(F)F)Cn2nc(-c3ccc(F)cc3)c(-c3ccn4nccc4c3)c2CO1` (single isomer, unassigned) [Example 412, (*R)-2-(4-Fluorophenyl)-6-methyl-3-(pyrazolo[1,5-a]pyridin-5-yl)-6-(trifluoromethyl)-6,7-dihydro-4H-pyrazolo[5,1-c][1,4]oxazine] are 149 nM and 694 nM.
On the same counts, the results for `CC1(C(F)(F)F)Cn2nc(-c3ccc(F)cc3)c(-c3ccn4nccc4c3)c2CO1` (single isomer, unassigned) [Example 413, (*S)-2-(4-Fluorophenyl)-6-methyl-3-(pyrazolo[1,5-a]pyridin-5-yl)-6-(trifluoromethyl)-6,7-dihydro-4H-pyrazolo[5,1-c][1,4]oxazine] are 27 nM and 75 nM.
The corresponding values for `C[C@]1(C(F)(F)F)Cn2nc(-c3ccc(F)cn3)c(-c3ccn4nccc4c3)c2CO1` (single isomer, unassigned) [Example 414, (*R)-2-(5-Fluoropyridin-2-yl)-6-methyl-3-(pyrazolo[1,5-a]pyridin-5-yl)-6-(trifluoromethyl)-6,7-dihydro-4H-pyrazolo[5,1-c][1,4]oxazine] are 8 nM and 330 nM.
For `C[C@@]1(C(F)(F)F)Cn2nc(-c3ccc(F)cn3)c(-c3ccn4nccc4c3)c2CO1` (single isomer, unassigned) [Example 415, (*S)-2-(5-Fluoropyridin-2-yl)-6-methyl-3-(pyrazolo[1,5-a]pyridin-5-yl)-6-(trifluoromethyl)-6,7-dihydro-4H-pyrazolo[5,1-c][1,4]oxazine], the IC50 was 264 nM in test [1] and 3890 nM in test [2].
The corresponding values for `CC1(C(F)(F)F)Cn2nc(-c3ccc(F)cc3)c(-c3ccnc4[nH]ncc34)c2CO1` (single isomer, unassigned) [Example 416, (*R)-2-(4-Fluorophenyl)-6-methyl-3-(1H-pyrazolo[3,4-b]pyridin-4-yl)-6-(trifluoromethyl)-6,7-dihydro-4H-pyrazolo[5,1-c][1,4]oxazine] are 17 nM and 118 nM.
The corresponding values for `CC1(C(F)(F)F)Cn2nc(-c3ccc(F)cc3)c(-c3ccnc4[nH]ncc34)c2CO1` (single isomer, unassigned) [Example 417, (*)-2-(4-Fluorophenyl)-6-methyl-3-(1H-pyrazolo[3,4-b]pyridin-4-yl)-6-(trifluoromethyl)-6,7-dihydro-4H-pyrazolo[5,1-c][1,4]oxazine] are 1 nM and 3 nM.
On the same counts, the results for `Cc1n[nH]c2nccc(-c3c(-c4ccc(F)cn4)nn4c3CO[C@@](C)(C(F)(F)F)C4)c12` (single isomer, unassigned) [Example 418, (*R)-2-(5-Fluoropyridin-2-yl)-6-methyl-3-(3-methyl-1H-pyrazolo[3,4-b]pyridin-4-yl)-6-(trifluoromethyl)-6,7-dihydro-4H-pyrazolo[5,1-c][1,4]oxazine] are 16 nM and 124 nM.
